Measured values taken from patent publication US7767713B2, “Linoleic acid active agents for enhancing probability of becoming pregnant” (Palo Alto Investors, priority 2004, dated 2010).

Key:
[1] = system: female patients unable to achieve a successful pregnancy; assay: Open-label oral treatment of infertility clinic patients; format: in vivo, human; conditions: oral form, 100 mg-5 g/day for three months, patients unable to achieve pregnancy for at least six months
Method: Several patients from an active infertility clinic population are selected for open-label treatment with linoleic acid. All female patients have been unable to achieve a successful pregnancy for at least six months. Linoleic acid is formulated into a pharmaceutical oral form at a dosage of 100 mg-5 g/day for three months.

[2] = system: uterine lining Th1/Th2 balance; assay: Animal model, immune function of the uterine lining; format: in vivo; conditions: intravaginal injection, intrauterine injection or soaked vaginal sponge; versus sterile saline control animals
Method: An animal model is used to determine the effects of linoleic acid on immune function of the uterine lining. Linoleic acid is delivered via several different methods—direct injection of the linoleic acid formulation into the vagina, direct injection of linoleic acid formulation into the uterus, linoleic acid soaked into a sponge and placed into the vagina. Control animals have sterile saline instilled in place of linoleic acid. The animals are then sacrificed, and the uterine lining is analyzed for changes in immunologic activity.

CCCCC/C=C\C/C=C\CCCCCCCC(=O)O [linoleic acid, Linoleic acid]
Successful pregnancies [1]: Successful pregnancies are seen in at least one patient | Changes in Th1/Th2 balance of uterine lining [2]: Changes in Th1/Th2 balance are seen
